Data published in PubChem BioAssay (NCI).
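Protocol summary: plate cells (96-well), add compound at 5 concentrations, incubate 48 h, interpolate endpoints linearly. TGI: concentration producing complete growth inhibition.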

Legend:
Test in all cases: NCI anticancer screen, dose series, 48 h
[1] = tested on: HOP-18 NSCLC
[2] = tested on: DLD-1 colon
[3] = tested on: M19-MEL melanoma
[4] = tested on: SF-295 CNS
[5] = tested on: SNB-78 CNS
[6] = tested on: UACC-257 melanoma
[7] = tested on: DMS 114 small cell lung
[8] = tested on: XF 498 CNS
[9] = tested on: DMS 273 small cell lung
[10] = tested on: SW-620 colon
[11] = tested on: RXF-631 renal
[12] = tested on: LXFL 529 NSCLC
[13] = tested on: KM20L2 colon
[14] = tested on: A498 renal

Compound	TGI [1]	TGI [2]	TGI [3]	TGI [4]	TGI [5]	TGI [6]	TGI [7]	TGI [8]	TGI [9]	TGI [10]	TGI [11]	TGI [12]	TGI [13]	TGI [14]
c1cnc2c(c1)-n1cccc1C1(CCSC1)NN2 (stereo not drawn)	> 100 µM	> 100 µM	> 100 µM	> 100 µM	> 100 µM	> 100 µM	> 100 µM	> 100 µM	> 100 µM	> 100 µM				
Cc1cc2oc(-c3ccccc3)c(C)c(=O)c2c2c1OC(C)(C)S2	> 100 µM	> 100 µM	> 100 µM	> 100 µM		> 100 µM	> 100 µM	> 100 µM	> 100 µM	> 100 µM	> 100 µM	> 100 µM	> 100 µM	
Cc1ccc(NCC(=O)N2CC(=O)Nc3ccccc32)cc1	> 100 µM	> 100 µM	> 100 µM	> 100 µM	> 100 µM	> 100 µM	> 100 µM	> 100 µM	> 100 µM	> 100 µM		> 100 µM	> 100 µM	
CCOC(=O)CSc1nnc(CSc2nc(-c3ccccc3)c(-c3ccccc3)[nH]2)n1-c1ccccc1		> 100 µM	> 100 µM	> 100 µM	68.5 µM	> 67.4 µM	39.8 µM	46.3 µM	> 100 µM	> 100 µM		42.4 µM	59.2 µM	33.2 µM
Cc1ccc2c(c1)C1(OC(=O)c3ccccc31)c1ccc(F)cc1O2 (stereo not drawn)	> 100 µM	> 100 µM	> 100 µM			> 100 µM	> 100 µM	> 100 µM		> 100 µM	> 100 µM	> 100 µM	> 100 µM	
CC(=O)OC1CC2(C)OC(Cc3ccccc32)O1 (stereo not drawn)	> 100 µM	> 100 µM	> 100 µM	> 100 µM	> 100 µM	> 100 µM	> 100 µM	> 100 µM	> 100 µM	> 100 µM			> 100 µM	
COc1ccc(N2C(=O)c3c(c4[nH]c5ccc(OC)cc5c4c4ccc(C(C)(C)C)cc34)C2=O)cc1	> 100 µM	> 100 µM	> 100 µM	> 100 µM	> 100 µM	> 100 µM	> 100 µM	> 100 µM	> 100 µM			> 100 µM		
Cc1ccc(S(=O)(=O)N2c3ccccc3[C@H]3CCC=C[C@H]32)cc1	> 100 µM	> 100 µM	37.8 µM	32.4 µM	> 85.7 µM	> 95.4 µM	15.1 µM	73.7 µM	18.9 µM	47.7 µM	> 100 µM	> 93.9 µM	10.3 µM	46.2 µM
CCC12CCCNC1c1c(n(C)c3ccccc13)C(C(=O)OC)C2 (stereo not drawn)		> 275 µM	194 µM	124 µM		255 µM	152 µM	123 µM	246 µM	> 275 µM		> 275 µM	231 µM	
Cc1cc(C)n2c(-c3ccccc3)c(C)cc2n1	> 100 µM	> 100 µM	> 100 µM	> 100 µM	> 100 µM	> 100 µM	> 100 µM		> 100 µM	> 100 µM	> 100 µM		> 100 µM	> 100 µM
